The NIST ThermoML archive (doi:10.1021/je5010164)
± gives the expanded uncertainty stated by the source.

Details: Liquid, Frequency=8 MHz, Pulse-echo method

Structure (SMILES): C1CCCC1 [cyclopentane]
- speed of sound (258.15 K, 100 kPa): 1419.1 ± 3.1 m/s
- speed of sound (258.15 K, 5072 kPa): 1446.1 ± 3.2 m/s
- speed of sound (258.15 K, 10244 kPa): 1473 ± 3.2 m/s
- speed of sound (258.15 K, 15262 kPa): 1498.1 ± 3.3 m/s
- speed of sound (258.15 K, 20158 kPa): 1521.7 ± 3.3 m/s
- speed of sound (258.15 K, 25083 kPa): 1544.5 ± 3.4 m/s
- speed of sound (258.15 K, 30141 kPa): 1567.1 ± 3.4 m/s
- speed of sound (273.15 K, 100 kPa): 1336.6 ± 3 m/s
- speed of sound (273.15 K, 5169 kPa): 1366.7 ± 3 m/s
- speed of sound (273.15 K, 10059 kPa): 1394.3 ± 3.1 m/s
- speed of sound (273.15 K, 15219 kPa): 1422 ± 3.2 m/s
- speed of sound (273.15 K, 20251 kPa): 1447.9 ± 3.2 m/s
- speed of sound (273.15 K, 25184 kPa): 1472.3 ± 3.2 m/s
- speed of sound (273.15 K, 30227 kPa): 1496.3 ± 3.3 m/s
- speed of sound (293.15 K, 105 kPa): 1230.1 ± 2.8 m/s
- speed of sound (293.15 K, 5059 kPa): 1263 ± 2.9 m/s
- speed of sound (293.15 K, 10088 kPa): 1294.4 ± 2.9 m/s
- speed of sound (293.15 K, 15198 kPa): 1324.6 ± 3 m/s
- speed of sound (293.15 K, 20121 kPa): 1352.3 ± 3 m/s
- speed of sound (293.15 K, 25192 kPa): 1379.6 ± 3.1 m/s
- speed of sound (293.15 K, 30134 kPa): 1405 ± 3.1 m/s
- speed of sound (313.15 K, 107 kPa): 1126.8 ± 2.6 m/s
- speed of sound (313.15 K, 5113 kPa): 1164 ± 2.7 m/s
- speed of sound (313.15 K, 10058 kPa): 1198.3 ± 2.7 m/s
- speed of sound (313.15 K, 15132 kPa): 1231.3 ± 2.8 m/s
- speed of sound (313.15 K, 20097 kPa): 1261.8 ± 2.9 m/s
- speed of sound (313.15 K, 25098 kPa): 1291 ± 2.9 m/s
- speed of sound (313.15 K, 30162 kPa): 1319.2 ± 3 m/s
- speed of sound (333.15 K, 149 kPa): 1026.6 ± 2.4 m/s
- speed of sound (333.15 K, 5035 kPa): 1067.6 ± 2.5 m/s
- speed of sound (333.15 K, 10139 kPa): 1107 ± 2.6 m/s
- speed of sound (333.15 K, 15108 kPa): 1142.5 ± 2.6 m/s
- speed of sound (333.15 K, 20130 kPa): 1176.2 ± 2.7 m/s
- speed of sound (333.15 K, 25152 kPa): 1208 ± 2.8 m/s
- speed of sound (333.15 K, 30170 kPa): 1238 ± 2.8 m/s
- speed of sound (353.15 K, 261 kPa): 929.4 ± 2.3 m/s
- speed of sound (353.15 K, 5019 kPa): 974.63 ± 2.3 m/s
- speed of sound (353.15 K, 10069 kPa): 1018.2 ± 2.4 m/s
- speed of sound (353.15 K, 15107 kPa): 1058.1 ± 2.5 m/s
- speed of sound (353.15 K, 20063 kPa): 1094.4 ± 2.6 m/s
- speed of sound (353.15 K, 25009 kPa): 1128.3 ± 2.6 m/s
- speed of sound (353.15 K, 30157 kPa): 1161.5 ± 2.7 m/s
